The values below come from patent publication US12233130B2, “Covalently-modified steroid acid-peptides having enhanced stability and/or biological activity” (DEFENCE THERAPEUTICS INC., priority 2022, dated 2025).

Each structure is given as a SMILES string. Positions of bridges follow the written chain, without caps; N, C: chain ends. Residues, ends and D or L forms follow the SMILES beside them. Chains are numbered I, II in the order given. *: point of attachment. Chenodeoxycholyl = C[C@H](CCC(=O)*)[C@H]1CC[C@H]2[C@@H]3[C@H](O)C[C@@H]4C[C@H](O)CC[C@]4(C)[C@H]3CC[C@]12C

The series has as its system JIMT-1 breast cancer cells. As to the kind of experiment: Cell cytotoxicity assay (PrestoBlue). Format: cell-based. The method, then:
50 mg of CDCA-C-SV40 monomers (or other steroid acid-peptide monomers) were resuspended in 200-500 μL of DMSO. 10 eq of N,N-Diisopropylethylamine (DIPEA) was added to the mixture and incubated in a thermomixer at 37° C. with agitation (1000 rpm) overnight, enabling dimerization of the monomers via their N-terminal cysteine thiol groups to produce (CDCA-C-SV40)2 or other dimers. The samples were then analyzed by UPLC-MS to evaluate dimer formation efficiency. Cell toxicity was evaluated via a Cell Toxicity assay (PrestoBlue™).
In a T75 flask of confluent JIMT-1 cells (at least 75%), the culture medium was removed, and 2 mL of trypsin was then added and incubated at 37° C. for about 5 minutes or until the cells detached. The trypsin was inactivated by adding 10 mL of culture medium, the cells were centrifuged at 950 rpm for 5 minutes at 4° C., viable cells were visualized with trypan blue and counted using a hematocytometer. Cells were then plated in a 96-well plate at 5000 cells/well and incubated at 37° C. for 24 hours. Trastuzumab-(CDCA-C-SV40)2 or T-DM1-(CDCA-C-SV40)2 was then added to the cells and incubated for 72 hours at 37° C. […] Fluorescence (excitation: 535-560 nm, emission: 590-615 nm) was measured. The cells were further incubated for another 30 minutes, and a second fluorescence reading was taken.

With `CC(C)[C@H](NC(=O)[C@H](CCCCN)NC(=O)CNC(=O)[C@H](Cc1ccc(O)cc1)NC(=O)CNC(=O)[C@H](CO)NC(=O)[C@H](CSSC[C@H](NC(=O)CC[C@@H](C)[C@H]1CC[C@H]2[C@@H]3[C@H](O)C[C@@H]4C[C@H](O)CC[C@]4(C)[C@H]3CC[C@]12C)C(=O)N[C@@H](CO)C(=O)NCC(=O)N[C@@H](Cc1ccc(O)cc1)C(=O)NCC(=O)N[C@@H](CCCCN)C(=O)N[C@H](C(=O)N[C@@H](CO)C(=O)N[C@@H](CCCNC(=N)N)C(=O)N[C@@H](CCCNC(=N)N)C(=O)NCC(=O)NCC(=O)N[C@@H](Cc1c[nH]cn1)C(=O)N[C@@H](CCC(N)=O)C(=O)N[C@@H](CC(N)=O)C(=O)N[C@@H](CO)C(=O)N[C@@H](Cc1ccc(O)cc1)C(=O)N[C@@H](CCCCN)C(=O)N1CCC[C@H]1C(=O)N[C@@H](Cc1ccc(O)cc1)C(=O)O)C(C)C)NC(=O)CC[C@@H](C)[C@H]1CC[C@H]2[C@@H]3[C@H](O)C[C@@H]4C[C@H](O)CC[C@]4(C)[C@H]3CC[C@]12C)C(=O)N[C@@H](CO)C(=O)N[C@@H](CCCNC(=N)N)C(=O)N[C@@H](CCCNC(=N)N)C(=O)NCC(=O)NCC(=O)N[C@@H](Cc1c[nH]cn1)C(=O)N[C@@H](CCC(N)=O)C(=O)N[C@@H](CC(N)=O)C(=O)N[C@@H](CO)C(=O)N[C@@H](Cc1ccc(O)cc1)C(=O)N[C@@H](CCCCN)C(=O)N1CCC[C@H]1C(=O)N[C@@H](Cc1ccc(O)cc1)C(=O)O` [(CDCA-C-hnRNP D NLS)2] (I: Chenodeoxycholyl-CSGYGKVSRRGGHQNSYKPY-OH / II: Chenodeoxycholyl-CSGYGKVSRRGGHQNSYKPY-OH; disulfide I:1-II:1), the “cytotoxicity of dimerized version vs monomer” value is recorded as “enhancement of cytotoxicity”.
